Results: PubChem BioAssay (NCI)
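Abbreviation: GI50, concentration required for 50% inhibition of growth. TGI: total growth inhibition.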

Columns and labels:
Assay in all cases: inhibition of tumour cell growth, NCI panel, 384-well format; in the data active means GI50 below about 0.43 µM; inactive means the rest
786-0 renal = system: 786-0 renal
A498 renal = system: A498 renal
A549 NSCLC = system: A549 NSCLC
ACHN renal = system: ACHN renal
BT-549 breast = system: BT-549 breast
CAKI-1 renal = system: CAKI-1 renal
CCRF-CEM leukemia = system: CCRF-CEM leukemia
COLO 205 colon = system: COLO 205 colon
DU-145 prostate = system: DU-145 prostate
EKVX NSCLC = system: EKVX NSCLC
HCC-2998 colon = system: HCC-2998 colon
HCT-116 colon = system: HCT-116 colon
HCT-15 colon = system: HCT-15 colon
HL-60(TB) leukemia = system: HL-60(TB) leukemia
HOP-62 NSCLC = system: HOP-62 NSCLC
HOP-92 NSCLC = system: HOP-92 NSCLC
HS 578T breast = system: HS 578T breast
HT29 colon = system: HT29 colon
IGROV1 ovarian = system: IGROV1 ovarian
K-562 leukemia = system: K-562 leukemia
KM12 colon = system: KM12 colon
LOX IMVI melanoma = system: LOX IMVI melanoma
M14 melanoma = system: M14 melanoma
MALME-3M melanoma = system: MALME-3M melanoma
MCF7 breast = system: MCF7 breast
MDA-MB-231 breast = system: MDA-MB-231 breast
MDA-MB-435 melanoma = system: MDA-MB-435 melanoma
MOLT-4 leukemia = system: MOLT-4 leukemia
NCI-H226 lung = system: NCI-H226 lung
NCI-H23 lung = system: NCI-H23 lung
NCI-H322M lung = system: NCI-H322M lung
NCI-H460 NSCLC = system: NCI-H460 NSCLC
NCI-H522 lung = system: NCI-H522 lung
NCI/ADR-RES ovarian = system: NCI/ADR-RES ovarian
OVCAR-3 ovarian = system: OVCAR-3 ovarian
OVCAR-4 ovarian = system: OVCAR-4 ovarian
OVCAR-5 ovarian = system: OVCAR-5 ovarian
OVCAR-8 ovarian = system: OVCAR-8 ovarian
PC-3 prostate = system: PC-3 prostate
RPMI-8226 leukemia = system: RPMI-8226 leukemia
RXF 393 renal = system: RXF 393 renal
SF-295 CNS = system: SF-295 CNS
SK-MEL-28 melanoma = system: SK-MEL-28 melanoma
SK-MEL-5 melanoma = system: SK-MEL-5 melanoma
SK-OV-3 ovarian = system: SK-OV-3 ovarian
SN12C renal = system: SN12C renal
SNB-19 CNS = system: SNB-19 CNS
SNB-75 CNS = system: SNB-75 CNS
T-47D breast = system: T-47D breast
TK-10 renal = system: TK-10 renal
UACC-257 melanoma = system: UACC-257 melanoma
UACC-62 melanoma = system: UACC-62 melanoma
UO-31 renal = system: UO-31 renal

COc1cc(S(C)(=O)=O)ccc1Nc1nc2ccc(-c3ccc(NC(=O)[C@H](C)c4ccc(F)cc4)cc3)cn2n1
6.48 µM: TGI (RXF 393 renal)
active: GI50 (A549 NSCLC) 0.0517 µM | GI50 (CCRF-CEM leukemia) 0.0293 µM | GI50 (COLO 205 colon) 0.0428 µM | GI50 (HCT-116 colon) 0.0642 µM | GI50 (HCT-15 colon) 0.0587 µM | GI50 (HL-60(TB) leukemia) 0.0454 µM | GI50 (HOP-62 NSCLC) 0.0771 µM | GI50 (LOX IMVI melanoma) 0.053 µM | GI50 (MOLT-4 leukemia) 0.0201 µM | GI50 (NCI-H460 NSCLC) 0.0406 µM | GI50 (RPMI-8226 leukemia) 0.137 µM | GI50 (RXF 393 renal) 0.0742 µM
0.0417 µM: TGI (MOLT-4 leukemia)
inactive: GI50 ([…]-0 renal) 1.73 µM | GI50 (A498 renal) > 100 µM | GI50 (ACHN renal) > 100 µM | GI50 (BT-549 breast) 32.5 µM | GI50 (CAKI-1 renal) > 100 µM | GI50 (DU-145 prostate) 5.41 µM | GI50 (EKVX NSCLC) > 100 µM | GI50 (HCC-2998 colon) > 100 µM | GI50 (HOP-92 NSCLC) 42.1 µM | GI50 (HS 578T breast) 17.4 µM | GI50 (HT29 colon) 0.602 µM | GI50 (IGROV1 ovarian) > 100 µM | GI50 (K-562 leukemia) 0.777 µM | GI50 (KM12 colon) 61.7 µM | GI50 (M14 melanoma) > 100 µM | GI50 (MALME-3M melanoma) 58.2 µM | GI50 (MCF7 breast) 4.61 µM | GI50 (MDA-MB-231 breast) > 100 µM | GI50 (MDA-MB-435 melanoma) > 100 µM | GI50 (NCI-H226 lung) > 100 µM | GI50 (NCI-H23 lung) > 100 µM | GI50 (NCI-H322M lung) > 100 µM | GI50 (NCI-H522 lung) > 100 µM | GI50 (NCI/ADR-RES ovarian) 1.4 µM | GI50 (OVCAR-3 ovarian) > 100 µM | GI50 (OVCAR-4 ovarian) > 100 µM | GI50 (OVCAR-5 ovarian) > 100 µM | GI50 (OVCAR-8 ovarian) 1.19 µM | GI50 (PC-3 prostate) 69 µM | GI50 (SF-295 CNS) > 100 µM | GI50 (SK-MEL-28 melanoma) > 100 µM | GI50 (SK-MEL-5 melanoma) 1.54 µM | GI50 (SK-OV-3 ovarian) > 100 µM | GI50 (SN12C renal) > 100 µM | GI50 (SNB-19 CNS) > 100 µM | GI50 (SNB-75 CNS) 75.9 µM | GI50 (T-47D breast) 4.78 µM | GI50 (TK-10 renal) > 100 µM | GI50 (UACC-257 melanoma) > 100 µM | GI50 (UACC-62 melanoma) > 100 µM | GI50 (UO-31 renal) 22.4 µM
0.0694 µM: TGI (CCRF-CEM leukemia)
> 100 µM: TGI (786-0 renal) | TGI (A498 renal) | TGI (A549 NSCLC) | TGI (ACHN renal) | TGI (BT-549 breast) | TGI (CAKI-1 renal) | TGI (COLO 205 colon) | TGI (DU-145 prostate) | TGI (EKVX NSCLC) | TGI (HCC-2998 colon) | TGI (HCT-116 colon) | TGI (HCT-15 colon) | TGI (HL-60(TB) leukemia) | TGI (HOP-62 NSCLC) | TGI (HOP-92 NSCLC) | TGI (HS 578T breast) | TGI (HT29 colon) | TGI (IGROV1 ovarian) | TGI (K-562 leukemia) | TGI (KM12 colon) | TGI (LOX IMVI melanoma) | TGI (M14 melanoma) | TGI (MALME-3M melanoma) | TGI (MCF7 breast) | TGI (MDA-MB-231 breast) | TGI (MDA-MB-435 melanoma) | TGI (NCI-H226 lung) | TGI (NCI-H23 lung) | TGI (NCI-H322M lung) | TGI (NCI-H460 NSCLC) | TGI (NCI-H522 lung) | TGI (NCI/ADR-RES ovarian) | TGI (OVCAR-3 ovarian) | TGI (OVCAR-4 ovarian) | TGI (OVCAR-5 ovarian) | TGI (OVCAR-8 ovarian) | TGI (PC-3 prostate) | TGI (RPMI-8226 leukemia) | TGI (SF-295 CNS) | TGI (SK-MEL-28 melanoma) | TGI (SK-MEL-5 melanoma) | TGI (SK-OV-3 ovarian) | TGI (SN12C renal) | TGI (SNB-19 CNS) | TGI (SNB-75 CNS) | TGI (T-47D breast) | TGI (TK-10 renal) | TGI (UACC-257 melanoma) | TGI (UACC-62 melanoma) | TGI (UO-31 renal)
